Consider eleven molecules from ChEMBL document CHEMBL1201862, “PubChem BioAssay data set” (2004).

Among the test systems are 786-0; BT-549; COLO 205; DU-145; HCC 2998; HOP-92; Hs-578T; K562; MDA-N; NCI-H522; OVCAR-4; OVCAR-8; RPMI-8226; SF-268; SK-OV-3; TK-10; UACC-257; UACC-62; HL-60.
Holding throughout (experiment): inhibition of tumour cell growth, NCI panel, 48 h

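1) Cells in 96-well plates. 2) Compound, 48 h, 5 concentrations. 3) Linear interpolation between surrounding doses. 4) Unreached endpoint = highest concentration. GI50 marks 50% less growth.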 The source made the active and inactive calls. No stated cut-off is given here; in the data, active = GI50 up to about 1.1 µM and inactive = higher.

Turning to `O=C1/C(=C\c2cccc(Oc3ccccc3)c2)S(=O)(=O)C(c2ccccc2)N1c1cccc(Cl)c1` (stereo not given), the GI50 is 46.5 µM (inactive) with 786-0; 45.8 µM (inactive) in the assay on BT-549; 69.8 µM (inactive) in the assay on COLO 205; 65.5 µM (inactive) in the assay on DU-145; > 100 µM (inactive) with HCC 2998; 27.7 µM (inactive) with HOP-92. Further, the GI50 in the assay with Hs-578T was 65.5 µM (inactive); with K562, 26.4 µM (inactive); in the assay on MDA-N it was 25.9 µM (inactive); with NCI-H522, 26.8 µM (inactive); with OVCAR-4, 98.9 µM (inactive); in the assay with OVCAR-8, 25.2 µM (inactive). Also, the GI50 with RPMI-8226 was 25.9 µM (inactive); in the assay on SF-268 it was 39.2 µM (inactive); in the assay with SK-OV-3, 66.4 µM (inactive); in the assay on TK-10, > 100 µM (inactive); with UACC-257, 74.6 µM (inactive); in the assay with UACC-62, 57.7 µM (inactive).
With `CC(C)(CC(O)C#N)/[N+]([O-])=[N+](\[O-])C(C)(C)CC(O)C#N` (stereo not given), the GI50 with 786-0 is 18.2 µM (inactive); in the assay with BT-549, 20.6 µM (inactive); in the assay with COLO 205, 14.8 µM (inactive); in the assay with DU-145, 30.5 µM (inactive); in the assay on HCC 2998, 17.2 µM (inactive); with HOP-92 it was 18.2 µM (inactive). Further, the GI50 in the assay with Hs-578T was 12.2 µM (inactive); in the assay with K562 it was 14.4 µM (inactive); with MDA-N, 20.7 µM (inactive); with NCI-H522, 13.8 µM (inactive); with OVCAR-4 it was 24.1 µM (inactive); in the assay on OVCAR-8, 32.3 µM (inactive). Further, the GI50 was 19.4 µM (inactive) in the assay on RPMI-8226; 23.4 µM (inactive) in the assay on SF-268; 29.8 µM (inactive) with SK-OV-3; 26.7 µM (inactive) in the assay on TK-10; 20.4 µM (inactive) in the assay on UACC-257; 16 µM (inactive) in the assay on UACC-62.
With `CC1CC(C#N)=C2NCCCCN2C1=O` (stereo not given), the GI50 in the assay with 786-0, in the assay with BT-549, with COLO 205, with DU-145, in the assay with HCC 2998 and in the assay on HL-60 was > 100 µM (inactive) each time. Besides, the GI50 in the assay on Hs-578T, in the assay with K562, with MDA-N, with NCI-H522, with OVCAR-4 and in the assay on OVCAR-8 was > 100 µM (inactive) each time. Moreover, the GI50 with RPMI-8226, in the assay on SF-268, with SK-OV-3, in the assay on TK-10, in the assay with UACC-257 and in the assay with UACC-62 was > 100 µM (inactive) in each case.
In the case of `C=CCSC1=N/C(=C\c2cccs2)C(=O)N1CC=C`, the GI50 in the assay on 786-0 is 45.4 µM (inactive); in the assay with BT-549, 44.4 µM (inactive); in the assay with COLO 205 it was 56.2 µM (inactive); with DU-145, 79.3 µM (inactive); in the assay on HCC 2998 it was 58.9 µM (inactive); with HOP-92, 12.9 µM (inactive). Further, the GI50 in the assay on Hs-578T is > 100 µM (inactive); in the assay on K562 it was 29.4 µM (inactive); with MDA-N, 42.9 µM (inactive); in the assay with NCI-H522, 49.4 µM (inactive); in the assay with OVCAR-4 it was 38.6 µM (inactive); with OVCAR-8, 44.6 µM (inactive). The GI50 with RPMI-8226 was 21.9 µM (inactive); with SF-268 it was > 100 µM (inactive); in the assay on SK-OV-3, > 100 µM (inactive); with TK-10 it was > 100 µM (inactive); in the assay with UACC-257, 49.8 µM (inactive); in the assay with UACC-62, 63.2 µM (inactive).
As to `CC(C)C(=O)CC(Sc1ccc(N)cc1)c1ccccc1` (stereo not given), the GI50 with 786-0 is 28.8 µM (inactive); with BT-549, 33.7 µM (inactive); with COLO 205, 33.2 µM (inactive); in the assay on DU-145 it was 25.4 µM (inactive); with HCC 2998, 24.7 µM (inactive); in the assay on HL-60, 16.2 µM (inactive). Also, the GI50 with Hs-578T is 21.7 µM (inactive); in the assay on K562, 25.4 µM (inactive); in the assay on MDA-N, 16 µM (inactive); in the assay with NCI-H522, 15.8 µM (inactive); with OVCAR-8 it was 25.6 µM (inactive); with RPMI-8226 it was 17.4 µM (inactive). The GI50 in the assay with SF-268 is 28.5 µM (inactive); with SK-OV-3, 26.4 µM (inactive); in the assay on TK-10 it was 69.8 µM (inactive); with UACC-257, 33.6 µM (inactive); in the assay on UACC-62, 19 µM (inactive).
Take `CC(C)Nc1[nH]c(C(=O)c2ccccc2)c(N)c1C(=S)Nc1ccccc1`: the GI50 in the assay on 786-0 is 36.5 µM (inactive); in the assay on BT-549, > 100 µM (inactive); in the assay on COLO 205 it was 28.1 µM (inactive); with DU-145, > 100 µM (inactive); with HCC 2998, 21.8 µM (inactive); in the assay with HL-60, > 100 µM (inactive). For the same molecule, the GI50 is > 100 µM (inactive) in the assay on HOP-92; 86.1 µM (inactive) in the assay on Hs-578T; 60.8 µM (inactive) with K562; 40.4 µM (inactive) in the assay on MDA-N; 63.8 µM (inactive) in the assay on NCI-H522; 71.9 µM (inactive) in the assay on OVCAR-4. Further, the GI50 in the assay with OVCAR-8 was 84.7 µM (inactive); in the assay with SF-268, 67.8 µM (inactive); in the assay with SK-OV-3, > 100 µM (inactive); in the assay on TK-10 it was 57.1 µM (inactive); in the assay on UACC-257 it was 22.9 µM (inactive); in the assay with UACC-62, 16.9 µM (inactive).
For `CCN(CC)C(=S)N/N=C/c1cc(OC)ccc1O`, the GI50 in the assay on 786-0 is 2.75 µM (inactive); with BT-549, 7.05 µM (inactive); in the assay on COLO 205, 3.86 µM (inactive); with DU-145, 5.86 µM (inactive); in the assay with HCC 2998, 3.86 µM (inactive); in the assay with HL-60, 2.46 µM (inactive). Moreover, the GI50 in the assay on Hs-578T is 69.8 µM (inactive); in the assay with K562, 4.52 µM (inactive); in the assay with MDA-N, 6.68 µM (inactive); in the assay with NCI-H522, 3.85 µM (inactive); in the assay with OVCAR-4 it was 3.56 µM (inactive); with OVCAR-8, 4.51 µM (inactive). The GI50 in the assay with SF-268 was 1.87 µM (inactive); in the assay with SK-OV-3 it was 5.21 µM (inactive); in the assay with TK-10, 4.3 µM (inactive); with UACC-257 it was 7.31 µM (inactive); in the assay on UACC-62 it was 4.25 µM (inactive).
As for `CCCN1CCC(=O)N(CCC(F)(F)C(F)(F)C(F)(F)C(F)(F)C(F)(F)C(F)(F)F)C1=S`, the GI50 in the assay with 786-0 is > 100 µM (inactive); in the assay on BT-549, > 100 µM (inactive); in the assay on COLO 205, 69.7 µM (inactive); in the assay on DU-145 it was > 100 µM (inactive); in the assay on HCC 2998, 94.6 µM (inactive); in the assay with HL-60, > 100 µM (inactive). The GI50 in the assay with HOP-92, with Hs-578T, in the assay on K562, in the assay with MDA-N, in the assay on NCI-H522 and in the assay on OVCAR-4 was > 100 µM (inactive) in each case. The GI50 with OVCAR-8, in the assay on SF-268, in the assay on SK-OV-3, with TK-10, in the assay with UACC-257 and in the assay on UACC-62 was > 100 µM (inactive) throughout.
As for `CN(c1ccccc1Cl)S(=O)(=O)c1ccc([N+](=O)[O-])cc1`, the GI50 in the assay on 786-0, with BT-549, in the assay on COLO 205, in the assay with DU-145, in the assay with HCC 2998 and in the assay with HL-60 was > 100 µM (inactive) throughout. Besides, the GI50 in the assay with Hs-578T, with K562, in the assay with MDA-N, in the assay on NCI-H522, in the assay on OVCAR-4 and in the assay on OVCAR-8 was > 100 µM (inactive) in each case. The GI50 in the assay with RPMI-8226, in the assay with SF-268, in the assay with SK-OV-3, in the assay on TK-10, with UACC-257 and with UACC-62 was > 100 µM (inactive) each time.
Turning to `CCN(CC)c1ccc(/C=c2\nc(-c3ccccc3)n3c2nc2ccccc23)cc1`, the GI50 is 4.27 µM (inactive) in the assay on 786-0; 16.9 µM (inactive) in the assay on BT-549; 5.14 µM (inactive) with COLO 205; 26.8 µM (inactive) in the assay on DU-145; 2.72 µM (inactive) in the assay with HCC 2998; 68.7 µM (inactive) in the assay with HOP-92. The GI50 was 24.4 µM (inactive) in the assay on Hs-578T; 3.77 µM (inactive) in the assay on K562; 6.25 µM (inactive) with MDA-N; 3.17 µM (inactive) in the assay on OVCAR-4; 9.79 µM (inactive) in the assay with OVCAR-8; 1.48 µM (inactive) in the assay with RPMI-8226. The GI50 is 26.5 µM (inactive) with SF-268; 24.4 µM (inactive) in the assay with SK-OV-3; 17 µM (inactive) in the assay with TK-10; 21.9 µM (inactive) in the assay on UACC-257; 10.5 µM (inactive) in the assay on UACC-62.
In the case of `COC(=O)[C@]1(C)[C@H]2C[C@H]3O[C@H]4[C@H](O)[C@@H](O)OC(CC(O)C(C5=CC(=O)OC5)C(C5=CC(=O)OC5)C(O)CC56CCCCC7[C@@H](C)[C@H](C[C@H]8[C@](C)(C(=O)OC)[C@H](O)CC[C@]78C)O[C@H]([C@@H](O)[C@H](O)O5)[C@H]6O)(CCCCC([C@@H]3C)[C@]2(C)CC[C@@H]1O)[C@H]4O` (stereo not given in full), the GI50 was 0.0318 µM (active) with 786-0; 0.0625 µM (active) in the assay with BT-549; 0.338 µM (active) with COLO 205; 0.0628 µM (active) with DU-145; 0.655 µM (active) with HCC 2998; 0.0513 µM (active) in the assay with HL-60. In addition, the GI50 with HOP-92 was 0.281 µM (active); in the assay on Hs-578T it was < 0.0251 µM (active); in the assay with K562 it was 0.234 µM (active); in the assay on MDA-N, 0.138 µM (active); in the assay with NCI-H522, < 0.01 µM (active); in the assay with OVCAR-4, 0.147 µM (active). Moreover, the GI50 in the assay on OVCAR-8 was 0.188 µM (active); with SF-268 it was < 0.0272 µM (active); in the assay with SK-OV-3, 0.302 µM (active); in the assay with TK-10, < 0.0391 µM (active); in the assay on UACC-257 it was 0.244 µM (active); with UACC-62 it was 0.33 µM (active).
